Data from US20260285850A1, “SUBSTITUTED OXAZOLIDINONES AND IMIDAZOLINONES AS HERBICIDES” (FMC CORPORATION, priority 2023, published 2026).

Assays:
Format in all cases: in vivo
[1] = tested on: ragweed (common ragweed, Ambrosia artemisiifolia); assay: Test A preemergence soil spray, visual injury rating 0-100; conditions: 10 days, 0 = no effect, 100 = complete control
Method in brief: (§1)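 Plants were grown in a loam soil-sand blend and treated with test chemical in a non-phytotoxic solvent mixture containing surfactant, either sprayed on soil preemergence or applied postemergence to 2-10 cm plants. After 10 days in a greenhouse, injury was scored visually against untreated controls, 0 meaning no effect and 100 complete control.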

[2] = tested on: green foxtail (Setaria viridis); assay: as above; conditions: 10 days, 0 = no effect, 100 = complete control
Method in brief: as §1

corn (Zea mays) [3] = assay: as above; conditions: 10 days, 0 = no effect, 100 = complete control
Method in brief: as §1

[4] = tested on: oat, wild (wild oat, Avena fatua); assay: as above; conditions: 10 days, 0 = no effect, 100 = complete control
Method in brief: as §1

kochia (Bassia scoparia) [5] = assay: as above; conditions: 10 days, 0 = no effect, 100 = complete control
Method in brief: as §1

[6] = tested on: palmer (palmer amaranth, palmer pigweed, Amaranthus palmeri); assay: as above; conditions: 10 days, 0 = no effect, 100 = complete control
Method in brief: as §1

[7] = tested on: barnyardgrass (Echinochloa crus-galli); assay: as above; conditions: 10 days, 0 = no effect, 100 = complete control
Method in brief: as §1

[8] = tested on: blackgrass (Alopecurus myosuroides); assay: as above; conditions: 10 days, 0 = no effect, 100 = complete control
Method in brief: as §1

[9] = tested on: ryegrass, Italian (italian ryegrass, Lolium multiflorum); assay: as above; conditions: 10 days, 0 = no effect, 100 = complete control
Method in brief: as §1

[10] = tested on: wheat (Triticum aestivum); assay: as above; conditions: 10 days, 0 = no effect, 100 = complete control
Method in brief: as §1

soybean (Glycine max) [11] = assay: as above; conditions: 10 days, 0 = no effect, 100 = complete control
Method in brief: as §1

[12] = tested on: ragweed (common ragweed, Ambrosia artemisiifolia); assay: Test A postemergence application, visual injury rating 0-100; conditions: 10 days
Method in brief: as §1

[13] = tested on: green foxtail (Setaria viridis); assay: as above; conditions: 10 days
Method in brief: as §1

corn (Zea mays) [14] = assay: as above; conditions: 10 days
Method in brief: as §1

[15] = tested on: oat, wild (wild oat, Avena fatua); assay: as above; conditions: 10 days
Method in brief: as §1

kochia (Bassia scoparia) [16] = assay: as above; conditions: 10 days
Method in brief: as §1

[17] = tested on: galium (catchweed bedstraw, Galium aparine); assay: as above; conditions: 10 days
Method in brief: as §1

[18] = tested on: horseweed (Erigeron canadensis); assay: as above; conditions: 10 days
Method in brief: as §1

[19] = tested on: palmer (palmer amaranth, palmer pigweed, Amaranthus palmeri); assay: as above; conditions: 10 days
Method in brief: as §1

[20] = tested on: barnyardgrass (Echinochloa crus-galli); assay: as above; conditions: 10 days
Method in brief: as §1

[21] = tested on: blackgrass (Alopecurus myosuroides); assay: as above; conditions: 10 days
Method in brief: as §1

[22] = tested on: ryegrass, Italian (italian ryegrass, Lolium multiflorum); assay: as above; conditions: 10 days
Method in brief: as §1

[23] = tested on: wheat (Triticum aestivum); assay: as above; conditions: 10 days
Method in brief: as §1

soybean (Glycine max) [24] = assay: as above; conditions: 10 days
Method in brief: as §1

[25] = tested on: sedge, umbrella (small-flower umbrella sedge, Cyperus difformis); assay: Test B flooded paddy test, visual plant response rating 0-100; conditions: 250 g ai/ha, Flood, applied to paddy water, evaluated after 13 days
Method in brief: (§2)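 Each species was raised to two leaves before flooding to a 3 cm depth and dosing the water with compound. Injury was assessed by eye after 13 days under greenhouse conditions.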

[26] = tested on: barnyardgrass (Echinochloa crusgalli); assay: as above; conditions: 250 g ai/ha, Flood, applied to paddy water, evaluated after 13 days
Method in brief: as §2

rice (Oryza sativa) = assay: as above; conditions: 250 g ai/ha, Flood, applied to paddy water, evaluated after 13 days
Method in brief: as §2

[27] = tested on: ducksalad (Heteranthera limosa); assay: as above; conditions: 250 g ai/ha, Flood, applied to paddy water, evaluated after 13 days
Method in brief: as §2

[28] = 31 g ai/ha, postemergence, 0 = no effect, 100 = complete control
[29] = Postemergence, 125 g ai/ha, 0 is no effect, 100 is complete control

In the case of `CC(C)OC(=O)C1C=CC(NC(=O)C2(C)CN(c3cc(F)cc(Cl)c3)C(=O)O2)C1` (stereo not shown) [Compound 4], the “Ragweed plant response rating (0-100)” value ([1]; 31 g ai/ha) is reported as 0, the “Ragweed plant response rating (0 to 100 scale)” value ([1]; 125 g ai/ha) is reported as 0 and the “Foxtail, Green plant response rating (0-100)” value ([2]; 31 g ai/ha) is reported as 0. The “Foxtail, Green plant response rating (0 to 100 scale)” value ([2]; 125 g ai/ha) was 100, the “Corn plant response rating (0-100)” value (corn (Zea mays) [3]; 31 g ai/ha) was 40 and the “Corn plant response rating (0 to 100 scale)” value (corn (Zea mays) [3]; 125 g ai/ha) was 70. The “Oat, Wild plant response rating (0-100)” value ([4]; 31 g ai/ha) was 50, the “Oat, Wild plant response rating (0 to 100 scale)” value ([4]; 125 g ai/ha) was 80 and the “Kochia plant response rating (0-100)” value (kochia (Bassia scoparia) [5]; 31 g ai/ha) was 40. For the same compound, the “Kochia plant response rating (0 to 100 scale)” value (kochia (Bassia scoparia) [5]; 125 g ai/ha) was 90, the “Amaranth, Palmer plant response rating (0-100)” value ([6]; 31 g ai/ha) was 30 and the “Amaranth, Palmer plant response rating (0 to 100 scale)” value ([6]; 125 g ai/ha) was 100. The “Barnyardgrass plant response rating (0-100)” value ([7]; 31 g ai/ha) was 50, the “Barnyardgrass plant response rating (0 to 100 scale)” value ([7]; 125 g ai/ha) was 100 and the “Blackgrass plant response rating (0-100)” value ([8]; 31 g ai/ha) was 0. The “Blackgrass plant response rating (0 to 100 scale)” value ([8]; 125 g ai/ha) was 60, the “Ryegrass, Italian plant response rating (0-100)” value ([9]; 31 g ai/ha) was 50 and the “Ryegrass, Italian plant response rating (0 to 100 scale)” value ([9]; 125 g ai/ha) was 80. For the same compound, the “Wheat plant response rating (0-100)” value ([10]; 31 g ai/ha) was 40, the “Wheat plant response rating (0 to 100 scale)” value ([10]; 125 g ai/ha) was 90 and the “Soybean plant response rating (0-100)” value (soybean (Glycine max) [11]; 31 g ai/ha) was 0. The “Soybean plant response rating (0 to 100 scale)” value (soybean (Glycine max) [11]; 125 g ai/ha) was 70, the “Ragweed plant response rating (0-100)” value [12, 28] was 60 and the “Ragweed plant response rating (0 to 100 scale)” value [12, 29] was 80. For the same compound, the “Foxtail, Green plant response rating (0-100)” value [13, 28] was 90, the “Foxtail, Green plant response rating (0 to 100 scale)” value [13, 29] was 90 and the “Corn plant response rating (0-100)” value (corn (Zea mays) [14]; [28]) was 90. The “Corn plant response rating (0 to 100 scale)” value (corn (Zea mays) [14]; [29]) was 100, the “Oat, Wild plant response rating (0-100)” value [15, 28] was 90 and the “Oat, Wild plant response rating (0 to 100 scale)” value [15, 29] was 90. The “Kochia plant response rating (0-100)” value (kochia (Bassia scoparia) [16]; [28]) was 70, the “Kochia plant response rating (0 to 100 scale)” value (kochia (Bassia scoparia) [16]; [29]) was 80 and the “Galium plant response rating (0-100)” value [17, 28] was 80. For the same compound, the “Galium plant response rating (0 to 100 scale)” value [17, 29] was 90, the “Horseweed plant response rating (0-100)” value [18, 28] was 0 and the “Horseweed plant response rating (0 to 100 scale)” value [18, 29] was 70. For the same compound, the “Amaranth, Palmer plant response rating (0-100)” value [19, 28] was 50, the “Amaranth, Palmer / Pigweed, Palmer plant response rating (0 to 100 scale)” value [19, 29] was 90 and the “Barnyardgrass plant response rating (0-100)” value [20, 28] was 100. The “Barnyardgrass plant response rating (0 to 100 scale)” value [20, 29] was 100, the “Blackgrass plant response rating (0-100)” value [21, 28] was 80 and the “Blackgrass plant response rating (0 to 100 scale)” value [21, 29] was 90. The “Ryegrass, Italian plant response rating (0-100)” value [22, 28] was 60, the “Ryegrass, Italian plant response rating (0 to 100 scale)” value [22, 29] was 90 and the “Wheat plant response rating (0-100)” value [23, 28] was 90. For the same compound, the “Wheat plant response rating (0 to 100 scale)” value [23, 29] was 90, the “Soybean plant response rating (0-100)” value (soybean (Glycine max) [24]; [28]) was 80 and the “Soybean plant response rating (0 to 100 scale)” value (soybean (Glycine max) [24]; [29]) was 80. For the same compound, the “Plant response rating, Sedge, Umbrella (0 to 100 scale, 0 is no effect and 100 is complete control)” value [25] was 95, the “Plant response rating, Barnyardgrass (0 to 100 scale, 0 is no effect and 100 is complete control)” value [26] was 90 and the “Plant response rating, Rice (0 to 100 scale, 0 is no effect and 100 is complete control)” value (rice (Oryza sativa)) was 20. For the same compound, the “Plant response rating, Ducksalad (0 to 100 scale, 0 is no effect and 100 is complete control)” value [27] was 70.
